Drawing on US20230242887A1, “ONCOLYTIC VIRUS CARRYING E-CADHERIN AND USES THEREOF” (Ohio State Innovation Foundation, priority 2017, published 2023), this text covers IC50 for one compound.

Assay [1] relates to OV-CDH1. Briefly: Viral replication inhibition assay (HSV-1 genome copies by real-time PCR). The assay is classed as cell-based. The conditions noted are these: Human alphaherpesvirus 1; Gli36 cells, MOI of 5, 48 h. As for the experimental part:
(§1) FIGS. 12A-12B illustrate the safety test for OV-CDH1. FIG. 12(A) illustrates that Gli36 cells were infected with OV-Q1 or OV-CDH1 at a MOI of 5. Two hours after infection, the infection media were replaced with fresh media with increasing concentrations of Acyclovir. Forty-eight hours after infection, the cells were harvested for DNA extraction. The HSV-1 genome copy numbers in OV-Q1 and OV-CDH1 infected cells were measured by real-time PCR with primers and a probe against gD. The copy number vs. dose curves were established to evaluate the inhibitory effect of Acyclovir against oHSV replication (n=3). FIG. 12(B) illustrates survival curves of BLAB/c mice treated with wild-type HSV-1 (F strain), OV-Q1 or OV-CDH1 at the dose of 1×10^6 via i.c. or i.v injections.
(§2) OV-Q1 and OV-CDH1 both carry the HSV-1 TK gene, which makes the viruses sensitive to the antiviral acyclovir and its derivatives. […] For evaluating the in vivo safety of OV-CDH1, BALB/c mice were intravenously (i.v.) or i.c. injected with wild-type HSV-1 (F strain), OV-Q1, or OV-CDH1 at the dose of 1×10^6 PFU, which is the maximum dose due to the limited administration volume for i.c. injection. […] Mice treated with OV-Q1 and OV-CDH1 through i.v. or i.c. injections all survived over 4 weeks until they were euthanized and not monitored further (FIG. 12B). […]
On the technique in general: In qPCR the cycle at which signal appears reflects the starting amount.

For assay [2], the system named is OV-Q1. The description is as above. The assay is classed as cell-based. The settings on record: Human alphaherpesvirus 1, GLI36, 48 h, read-out: IC50 of inhibition of OV-Q1 replication. As for the experimental part:
as §1, §2

Molecules are shown by their SMILES.

The term IC50 denotes the midpoint of a concentration-inhibition curve. In the case of `Nc1nc2c(ncn2COCCO)c(=O)[nH]1` [acyclovir], the IC50 in assay [1] came to 2670 nM; in assay [2], 1670 nM.
